Measurements reported in patent US20160228444A1, “NUCLEOSIDE ANALOGS AND USES THEREOF” (Ramot at Tel-Aviv University Ltd., priority 2015, published 2016).
Like-named read-outs stand apart in the source and are kept apart here.

Experiments:
[1] = system: MCP-1; assay: MCP-1 gene expression in MDA-MB-231 cells (qRT-PCR); type: cell-based, human; conditions: combination with paclitaxel, FIG. 7C
Procedure: The effect of AN446 on inflammation-associated pathways was evaluated in the monocytic THP1 cell line and in the MDA-MB-231 breast carcinoma cell line. Supernatants of treated THP1 cells were collected and IL-6, IL-10 and TNF-α concentrations were quantified by ELISA (R&D systems). TLR4 expression in THP1 cells was assessed using fluorescent anti-TLR4 antibodies and FACS analysis. In addition, gene expression for MCP-1, TNF-α and TLR4 in MDA-MB-231 was evaluated by qRT-PCT, following treatment with AN446 and/or paclitaxel.

[2] = system: TNF-α; assay: Serum TNF-α in U251 xenograft mice (ELISA); type: in vivo; conditions: co-administration with doxorubicin, FIG. 8C
Procedure: AN446 was tested in vivo using a xenograft of glioblastoma (U251 cells) in mice.

[3] = system: proliferating fibroblasts in cardiac tissue; assay: Proliferating fibroblasts in heart sections (Ki67 / vimentin immunostaining); type: in vivo, mice; conditions: co-administration with doxorubicin, FIGS. 8B, 8C
From the text: In addition, by double-staining heart sections by immunostaining for the fibroblast marker vimentin and the proliferation marker Ki67, it was observed that most of the proliferating (Ki67-positive) cells in hearts of doxorubicin-treated mice were fibroblasts (vimentin-positive).

[4] = system: peripheral blood lymphocytes (PBLs) from healthy volunteers; assay: MTT cell viability assay, 48 hours; type: cell-based; conditions: Homo sapiens, Lymphocyte, read-out: IC50 PBL
Procedure: The MyLa CTLC cell line (originating from an indolent mycosis fungoides patient) and the Hut-78 CTLC cell line (originating from an aggressive Sézary patient) were used to evaluate toxicity towards cancer cells, and peripheral blood lymphocytes (PBLs) from healthy volunteers were used to evaluate toxicity towards noncancerous cells.
(§1) Cell viability was determined by an MTT cell viability assay after 48 hours. MyLa cells (10^4 cells/well), Hut78 cells (5×10^3 cells/well) and normal PBLs (10^5 cells/well) were seeded in 96 well-plates. The PBLs were activated with 40 μg/10^6 cells of phytohemagglutinine (PHA) for 24 h before the experiment.

[5] = system: MDA-231 cells; assay: Median-effect drug interaction, Hoechst viability, 72 h; type: cell-based, human; conditions: for IC50: Homo sapiens
Procedure: (§2) The ratios of the drug combination were based on the ratio of their IC50 of each drug alone. Cell viability was determined by MTT assay, as described hereinabove. The drugs were added to the cells and incubated for 72 h.
(§3) Drug interaction in adherent cells was evaluated as above except that the viability was determined by Hoechst assay.

[6] = system: NCI-N87 gastric carcinoma cells; assay: as above; type: cell-based, human; conditions: for IC50: Homo sapiens
Procedure: as §2, §3

[7] = system: T47D cells; assay: as above; type: cell-based, human; conditions: for IC50: Homo sapiens
Procedure: as §2, §3

[8] = system: HUT-78 CTCL cells; assay: Median-effect drug interaction, MTT viability, 72 h; type: cell-based, human; conditions: Homo sapiens
Procedure: as §1, §2

[9] = system: PBL; assay: as above; type: cell-based; conditions: Homo sapiens
Procedure: as §1, §2

[10] = system: acetylated H3 histone in H9C2 cardiomyoblasts; assay: Histone H3 acetylation (Western blot), 24 hours; type: cell-based, rat; conditions: FIG. 12
Procedure: The effects of the abovementioned HDAC inhibitors on histone acetylation were also compared. U251 and H9C2 cells were treated with the HDAC inhibitors for 24 hours (according to procedures described hereinabove with respect to FIGS. 9 and 10), and then subjected to Western blot analysis.

[11] = system: pH2AX in U251 cells; assay: Phosphorylated H2AX (Western blot), 24 or 48 hours; type: cell-based, human; conditions: FIG. 13A
Procedure: (§4) The effects of the abovementioned HDAC inhibitors on DNA damage and repair were then assessed by evaluating changes in levels of phosphorylated histone H2AX (pH2AX), a marker of DNA double-strand breaks, and Rad51, a marker of homologous recombination-guided DNA repair of double-strand breaks [Nagathihalli & Nagaraju, Biochim Biophys Acta 2011, 1816:209-218; Rogakou et al., J Biol Chem 1998, 273:5858-5868].
(§5) U251 and H9C2 cells were treated with the HDAC inhibitors for 24 or 48 hours, and then subjected to Western blot analysis.

[12] = system: Rad51 in U251 cells; assay: Rad51 (Western blot), 24 or 48 hours; type: cell-based, human; conditions: FIG. 14A
Procedure: as §4, §5

[13] = system: Rad51 in H9C2 cells; assay: Rad51 (Western blot), 24 or 48 hours; type: cell-based, rat; conditions: FIG. 14B
Procedure: as §4, §5

[14] = system: IL-6; assay: LPS-induced IL-6 secretion by normal human astrocytes (sandwich-ELISA); type: cell-based; conditions: 20 μM, LPS 1 μg/ml 24 hours, FIG. 16
Procedure: Normal human astrocytes (NHA) were treated with 20 μM AN446, and lipopolysaccharide (1 μg/ml) was then added for 24 hours, and the supernatants of the cultured cells were collected. IL-6 concentrations in cell culture supernatants were quantified by sandwich-ELISA using specific pairs of mAb antibodies (R&D).

[15] = system: U251 cells; assay: Hoechst viability assay 72 h / median-effect combination study; conditions: Homo sapiens, U-251, 72 h, read-out: IC50 value for viability in U251 cells after 72 hours
Procedure: Hoechst assay: 22RV-1, MCF-7, MCF-7DX, 4T1, U251, and T47D cells (3×10^3 cells/well) and NCI-N87 (8×10^3 cells/well) were seeded in tissue culture in growth medium for 24 h in 96-well plates (in triplicate) and then exposed to different concentrations (titration) of the tested drug for 72 h at 37° C. The plates were then rinsed with PBS and fixed with 100 ml of 70% ethanol for 30 min. […] The fluorescence was measured (excitation at 390 nm and emission at 460 nm) with a Synergy III Fluorometer-Elisa reader (BioTek Instruments, Inc. Germany).
The Median Effect Analysis (MEA) for a constant combination ratio was used for drugs interaction and the combination index (CI) determination.
The average values of three independent experiments were calculated and analyzed with CalcuSyn software.

[16] = system: TLR4; conditions: 24 hours, concentrations based on the IC50, FIG. 15

CCCC(CCC)C(=O)Nc1nc2c(ncn2COCCOC(=O)C(CCC)CCC)c(=O)[nH]1 [AN446, N-valproyl-9-(2-valproyloxy)ethoxymethyl-guanine]
paclitaxel-induced increase in expression of MCP-1 [1]: significantly attenuated
doxorubicin-induced rise in serum levels of TNF-α [2]: prevented a doxorubicin-induced rise in serum levels of TNF-α
doxorubicin-induced proliferation of fibroblasts in cardiac tissue [3]: significantly reduced the doxorubicin-induced proliferation of fibroblasts
IC50 [4]: 200 ± 3 µM
IC50 ([5]; MDA-MB-231, MDA-231, in combination with Dox, read-out: com IC50): 17 µM
IC50 ([5]; MDA-MB-231, MDA-231, in combination with paclitaxel, read-out: com IC50): 14 ± 0.3 µM
IC50 ([5]; MDA-MB-231, MDA-231, single agent, Table 2, read-out: IC50): 38 µM
IC50 ([5]; MDA-MB-231, MDA-231, single agent, Table 3, read-out: IC50): 37.8 ± 1.1 µM
CI (combination index with paclitaxel) ([5]; MDA-231): 0.8
IC50 ([6]; NCI-N87, NCI-N87, single agent, Table 2): 20 ± 3 µM
IC50 ([6]; NCI-N87, NCI-N87, single agent, Table 3): 20 ± 3 µM
IC50 ([6]; NCI-N87, read-out: com IC50, NCI-N87, in combination with Dox): 6 µM
IC50 ([6]; NCI-N87, read-out: com IC50, NCI-N87, in combination with paclitaxel): 9.1 ± 0.4 µM
CI (combination index with paclitaxel) ([6]; NCI-N87): 0.76
CI (combination index with paclitaxel) [7]: 1.4
IC50 ([7]; read-out: com IC50, T47D, in combination with Dox): 5.2 µM
IC50 ([7]; read-out: com IC50, T47D, in combination with paclitaxel): 13.6 ± 0.6 µM
IC50 ([7]; single agent, Table 2): 21.7 µM
IC50 ([7]; single agent, Table 3): 23.6 ± 0.6 µM
IC50 ([8]; HuT78, HUT-78, single agent, Table 2): 28 µM
IC50 ([8]; HuT78, read-out: com IC50, HUT-78, in combination with Dox): 11 µM
IC50 ([9]; read-out: com IC50, PBL, in combination with Dox): 187 µM
IC50 ([9]; single agent, Table 2): 198 µM
histone acetylation in H9C2 cardiomyocytes [10]: not in non-cancerous cardiomyocytes
pH2AX levels in U251 cancer cells [11]: considerably more effective than the other HDAC inhibitors at increasing pH2AX levels after 48 hours
expression of Rad51 in U251 cancer cells [12]: reduced expression of Rad51
expression of Rad51 in cardiomyocytes (H9C2) [13]: moderately increased expression
lipopolysaccharide-induced secretion of IL-6 by human astrocytes [14]: inhibited
IC50 [15]: 20 µM
TLR4 expression in MDA-231 cells [16]: considerably more effective than valproic acid at repressing TLR4
